Measured values reported in ChEMBL document CHEMBL1201861, “Genomics of Drug Sensitity in Cancer screening data, Wellcome Trust Sanger Institute”.

What was measured:
Assay in all cases: cells
Details in all cases: Homo sapiens
RCC10RGB = format: functional, cell-based;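 note: growth inhibition of human RCC10RGB cells, read out by a cell viability assay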
Description: SANGER: Inhibition of human RCC10RGB cell growth in a cell viability assay.

EW-13 = format: functional, cell-based;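 note: growth inhibition of EW-13 cells, read out with a cell viability assay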
Description: SANGER: Inhibition of human EW-13 cell growth in a cell viability assay.

TE-11 = format: functional, cell-based;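 note: growth inhibition of human TE-11 cells, read out by a cell viability assay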
Description: SANGER: Inhibition of human TE-11 cell growth in a cell viability assay.

M14 = format: functional, cell-based;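 note: growth inhibition of M14 cells, read out with a cell viability assay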
Description: SANGER: Inhibition of human M14 cell growth in a cell viability assay.

LU-139 = format: functional, cell-based
Description: SANGER: Inhibition of human LU-139 cell growth in a cell viability assay.

ATN-1 = format: functional, cell-based;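 note: growth inhibition of human ATN-1 cells, read out with a cell viability assay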
Description: SANGER: Inhibition of human ATN-1 cell growth in a cell viability assay.

TGBC1TKB = format: functional, cell-based;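 note: growth inhibition of TGBC1TKB cells, read out by a cell viability assay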
Description: SANGER: Inhibition of human TGBC1TKB cell growth in a cell viability assay.

SCH = format: functional, cell-based;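 note: growth inhibition of human SCH cells, read out in a cell viability assay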
Description: SANGER: Inhibition of human SCH cell growth in a cell viability assay.

NCI-H526 = format: functional, cell-based;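 note: growth inhibition of the human NCI-H526 cell line, measured by a cell viability assay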
Description: SANGER: Inhibition of human NCI-H526 cell growth in a cell viability assay.

GB-1 = format: functional, cell-based;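 note: growth of GB-1 cells judged by a viability assay, IC50 marks the concentration inhibiting growth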
Description: SANGER: Inhibition of human GB-1 cell growth in a cell viability assay.

RXF 393 = format: functional, cell-based;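 note: growth inhibition of human RXF 393 cells, read out with a cell viability assay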
Description: SANGER: Inhibition of human RXF393 cell growth in a cell viability assay.

PSN1 = format: functional, cell-based;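 note: suppression of growth of human PSN1 cells, read out by a cell viability assay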
Description: SANGER: Inhibition of human PSN1 cell growth in a cell viability assay.

PANC-08-13 = format: functional, cell-based;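 note: cell growth inhibition, measured with a cell viability assay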
Description: SANGER: Inhibition of human PANC-08-13 cell growth in a cell viability assay.

LU-99A = format: functional, cell-based;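 note: growth inhibition of LU-99A cells, read out with a cell viability assay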
Description: SANGER: Inhibition of human LU-99A cell growth in a cell viability assay.

KGN = format: functional, cell-based;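 note: growth inhibition of KGN cells, read out with a cell viability assay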
Description: SANGER: Inhibition of human KGN cell growth in a cell viability assay.

EW-11 = format: functional, cell-based;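 note: growth inhibition of human EW-11 cells, measured with a cell viability assay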
Description: SANGER: Inhibition of human EW-11 cell growth in a cell viability assay.

NKM-1 = format: functional, cell-based;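 note: growth inhibition of NKM-1 cells, read out with a cell viability assay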
Description: SANGER: Inhibition of human NKM-1 cell growth in a cell viability assay.

SK-N-FI = format: functional, cell-based;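 note: cell viability assay measuring growth inhibition of human SK-N-FI cells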
Description: SANGER: Inhibition of human SK-N-FI cell growth in a cell viability assay.

TE-1 = format: functional, cell-based
Description: SANGER: Inhibition of human TE-1 cell growth in a cell viability assay.

NCI-H1092 = format: functional, cell-based;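 note: cell growth inhibition measured with a cell viability assay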
Description: SANGER: Inhibition of human NCI-H1092 cell growth in a cell viability assay.

IST-MES1 = format: functional, cell-based;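 note: growth inhibition of IST-MES1 cells, measured with a cell viability assay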
Description: SANGER: Inhibition of human IST-MES1 cell growth in a cell viability assay.

COLO-320-HSR = format: functional, cell-based;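 note: growth inhibition of COLO-320-HSR cells, determined with a cell viability assay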
Description: SANGER: Inhibition of human COLO-320-HSR cell growth in a cell viability assay.

NCI-H630 = format: functional, cell-based;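 note: growth inhibition of NCI-H630 cells, read out with a cell viability assay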
Description: SANGER: Inhibition of human NCI-H630 cell growth in a cell viability assay.

NCI-H1355 = format: functional, cell-based;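 note: growth inhibition of human NCI-H1355 cells, read out by a cell viability assay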
Description: SANGER: Inhibition of human NCI-H1355 cell growth in a cell viability assay.

SH-4 = format: functional, cell-based;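 note: growth inhibition of SH-4 cells, read out with a cell viability assay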
Description: SANGER: Inhibition of human SH-4 cell growth in a cell viability assay.

MV4-11 = format: functional, cell-based, MV-4-11;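 note: cell viability readout measuring growth inhibition of human MV-4-11 cells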
Description: SANGER: Inhibition of human MV-4-11 cell growth in a cell viability assay.

SK-MEL-2 = format: functional, cell-based;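 note: growth inhibition of human SK-MEL-2 cells measured with a cell viability assay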
Description: SANGER: Inhibition of human SK-MEL-2 cell growth in a cell viability assay.

NCI-H69 = format: functional, cell-based;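 note: growth inhibition of the cell line, read out with a cell viability assay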
Description: SANGER: Inhibition of human NCI-H69 cell growth in a cell viability assay.

NCI-H1770 = format: functional, cell-based;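 note: growth inhibition of NCI-H1770 cells determined with a viability readout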
Description: SANGER: Inhibition of human NCI-H1770 cell growth in a cell viability assay.

EC-GI-10 = format: functional, cell-based
Description: SANGER: Inhibition of human EC-GI-10 cell growth in a cell viability assay.

OVCAR-4 = format: functional, cell-based;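 note: growth inhibition of human OVCAR-4 cells, measured with a cell viability assay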
Description: SANGER: Inhibition of human OVCAR-4 cell growth in a cell viability assay.

CAS-1 = format: functional, cell-based;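 note: growth inhibition of CAS-1 cells, measured with a cell viability assay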
Description: SANGER: Inhibition of human CAS-1 cell growth in a cell viability assay.

LS-123 = format: functional, cell-based
Description: SANGER: Inhibition of human LS-123 cell growth in a cell viability assay.

NCI-H446 = format: functional, cell-based;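 note: growth inhibition of NCI-H446 cells determined by a cell viability assay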
Description: SANGER: Inhibition of human NCI-H446 cell growth in a cell viability assay.

LB2241-RCC = format: functional, cell-based;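 note: cell viability assay measuring how strongly the cultured human renal carcinoma line is prevented from growing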
Description: SANGER: Inhibition of human LB2241-RCC cell growth in a cell viability assay.

NCI-H23 = format: functional, cell-based;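 note: cell viability assay measuring growth inhibition of NCI-H23 cells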
Description: SANGER: Inhibition of human NCI-H23 cell growth in a cell viability assay.

MN-60 = format: functional, cell-based;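 note: growth inhibition of the MN-60 cell line, determined with a cell viability assay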
Description: SANGER: Inhibition of human MN-60 cell growth in a cell viability assay.

Lu-65 = format: functional, cell-based;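 note: growth inhibition of Lu-65 cancer cells, read out by a cell viability assay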
Description: SANGER: Inhibition of human LU-65 cell growth in a cell viability assay.

P30-OHK = format: functional, cell-based;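 note: growth inhibition of the P30-OHK cell line, read out with a cell viability assay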
Description: SANGER: Inhibition of human P30-OHK cell growth in a cell viability assay.

EFO-21 = format: functional, cell-based;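 note: growth inhibition of EFO-21 cells measured with a viability assay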
Description: SANGER: Inhibition of human EFO-21 cell growth in a cell viability assay.

NCI-H1838 = format: functional, cell-based;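 note: growth inhibition of NCI-H1838 cells, determined with a cell viability readout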
Description: SANGER: Inhibition of human NCI-H1838 cell growth in a cell viability assay.

EKVX = format: functional, cell-based;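 note: growth inhibition of human EKVX cells, read out with a cell viability assay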
Description: SANGER: Inhibition of human EKVX cell growth in a cell viability assay.

LB2518-MEL = format: functional, cell-based;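 note: growth inhibition of human LB2518-MEL cells, measured with a cell viability assay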
Description: SANGER: Inhibition of human LB2518-MEL cell growth in a cell viability assay.

KURAMOCHI = format: functional, cell-based;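 note: growth inhibition of KURAMOCHI cells, read out with a cell viability assay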
Description: SANGER: Inhibition of human KURAMOCHI cell growth in a cell viability assay.

HEL = format: functional, cell-based;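 note: growth inhibition of HEL cells, read out with a cell viability assay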
Description: SANGER: Inhibition of human HEL cell growth in a cell viability assay.

LAN-6 = format: functional, cell-based;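 note: growth inhibition of LAN-6 cells, determined with a cell viability assay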
Description: SANGER: Inhibition of human LAN-6 cell growth in a cell viability assay.

SW982 = format: functional, cell-based;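 note: growth inhibition of SW982 cells, read out with a cell viability assay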
Description: SANGER: Inhibition of human SW982 cell growth in a cell viability assay.

SK-MEL-1 = format: functional, cell-based;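 note: growth inhibition of human SK-MEL-1 cells, read out by a cell viability assay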
Description: SANGER: Inhibition of human SK-MEL-1 cell growth in a cell viability assay.

ES6 = format: functional, cell-based;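 note: growth inhibition of human ES6 cells, read out with a cell viability assay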
Description: SANGER: Inhibition of human ES6 cell growth in a cell viability assay.

KG-1 = format: functional, cell-based;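 note: growth inhibition of KG-1 cells, read out by a cell viability assay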
Description: SANGER: Inhibition of human KG-1 cell growth in a cell viability assay.

no-11 = format: functional, cell-based;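 note: growth inhibition of human NO-11 cells, read out with a cell viability assay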
Description: SANGER: Inhibition of human no-11 cell growth in a cell viability assay.

SF-268 = format: functional, cell-based;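 note: growth inhibition of SF-268 cells determined with a cell viability assay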
Description: SANGER: Inhibition of human SF268 cell growth in a cell viability assay.

VM-CUB-1 = format: functional, cell-based;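 note: cell viability assay measuring growth inhibition of the human VM-CUB-1 cell line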
Description: SANGER: Inhibition of human VM-CUB-1 cell growth in a cell viability assay.

HuP-T4 = format: functional, cell-based
Description: SANGER: Inhibition of human HuP-T4 cell growth in a cell viability assay.

EFM-19 = format: functional, cell-based
Description: SANGER: Inhibition of human EFM-19 cell growth in a cell viability assay.

KYSE-410 = format: functional, cell-based
Description: SANGER: Inhibition of human KYSE-410 cell growth in a cell viability assay.

NH-12 = format: functional, cell-based
Description: SANGER: Inhibition of human NH-12 cell growth in a cell viability assay.

A498 = format: functional, cell-based
Description: SANGER: Inhibition of human A498 cell growth in a cell viability assay.

L-363 = format: functional, cell-based
Description: SANGER: Inhibition of human L-363 cell growth in a cell viability assay.

NCI-H720 = format: functional, cell-based
Description: SANGER: Inhibition of human NCI-H720 cell growth in a cell viability assay.

KARPAS-299 = format: functional, cell-based
Description: SANGER: Inhibition of human KARPAS-299 cell growth in a cell viability assay.

SJSA-1 = format: functional, cell-based
Description: SANGER: Inhibition of human SJSA-1 cell growth in a cell viability assay.

G-401 = format: functional, cell-based
Description: SANGER: Inhibition of human G-401 cell growth in a cell viability assay.

LU-134-A = format: functional, cell-based
Description: SANGER: Inhibition of human LU-134-A cell growth in a cell viability assay.

HH = format: functional, cell-based
Description: SANGER: Inhibition of human HH cell growth in a cell viability assay.

`C[C@]1(c2nc3c(C(N)=O)cccc3[nH]2)CCCN1` [VELIPARIB] showed an IC50 (RCC10RGB) greater than 5 µM, an IC50 (EW-13) greater than 5 µM and an IC50 (TE-11) greater than 5 µM. It also gave an IC50 (M14) greater than 5 µM, an IC50 (LU-139) greater than 5 µM and an IC50 (ATN-1) greater than 5 µM. The IC50 (TGBC1TKB) was greater than 5 µM, the IC50 (SCH) was greater than 5 µM and the IC50 (NCI-H526) was greater than 5 µM. The IC50 (GB-1) was greater than 5 µM, the IC50 (RXF 393) was greater than 5 µM and the IC50 (PSN1) was greater than 5 µM. For the same compound, the IC50 (PANC-08-13) was greater than 5 µM, the IC50 (LU-99A) was greater than 5 µM and the IC50 (KGN) was greater than 5 µM. For the same compound, the IC50 (EW-11) was greater than 5 µM, the IC50 (NKM-1) was greater than 5 µM and the IC50 (SK-N-FI) was greater than 5 µM. For the same compound, the IC50 (TE-1) was greater than 5 µM, the IC50 (NCI-H1092) was greater than 5 µM and the IC50 (IST-MES1) was greater than 5 µM. For the same compound, the IC50 (COLO-320-HSR) was greater than 5 µM, the IC50 (NCI-H630) was greater than 5 µM and the IC50 (NCI-H1355) was greater than 5 µM. The IC50 (SH-4) was greater than 5 µM, the IC50 (MV4-11) was greater than 5 µM and the IC50 (SK-MEL-2) was greater than 5 µM. It also gave an IC50 (NCI-H69) greater than 5 µM, an IC50 (NCI-H1770) greater than 5 µM and an IC50 (EC-GI-10) greater than 5 µM. For the same compound, the IC50 (OVCAR-4) was greater than 5 µM, the IC50 (CAS-1) was greater than 5 µM and the IC50 (LS-123) was greater than 5 µM. The IC50 (NCI-H446) was greater than 5 µM, the IC50 (LB2241-RCC) was greater than 5 µM and the IC50 (NCI-H23) was greater than 5 µM. It also gave an IC50 (MN-60) greater than 5 µM, an IC50 (Lu-65) greater than 5 µM and an IC50 (P30-OHK) greater than 5 µM. The IC50 (EFO-21) was greater than 5 µM, the IC50 (NCI-H1838) was greater than 5 µM and the IC50 (EKVX) was greater than 5 µM. The IC50 (LB2518-MEL) was greater than 5 µM, the IC50 (KURAMOCHI) was greater than 5 µM and the IC50 (HEL) was greater than 5 µM. For the same compound, the IC50 (LAN-6) was greater than 5 µM, the IC50 (SW982) was greater than 5 µM and the IC50 (SK-MEL-1) was greater than 5 µM. It also gave an IC50 (ES6) greater than 5 µM, an IC50 (KG-1) greater than 5 µM and an IC50 (no-11) greater than 5 µM. It also gave an IC50 (SF-268) greater than 5 µM, an IC50 (VM-CUB-1) greater than 5 µM and an IC50 (HuP-T4) greater than 5 µM. For the same compound, the IC50 (EFM-19) was greater than 5 µM, the IC50 (KYSE-410) was greater than 5 µM and the IC50 (NH-12) was greater than 5 µM. The IC50 (A498) was greater than 5 µM, the IC50 (L-363) was greater than 5 µM and the IC50 (NCI-H720) was greater than 5 µM. For the same compound, the IC50 (KARPAS-299) was greater than 5 µM, the IC50 (SJSA-1) was greater than 5 µM and the IC50 (G-401) was greater than 5 µM. The IC50 (LU-134-A) was greater than 5 µM and the IC50 (HH) was greater than 5 µM.
In the case of `Fc1cc(-c2cc[nH]/c(=N/c3ccc(-n4cnc(N5CCOCC5)n4)cc3)n2)cc(N2CCOCC2)c1`, the IC50 (RCC10RGB) is reported as 0.889 µM, the IC50 (EW-13) is reported as 0.297 µM and the IC50 (TE-11) is reported as 2.39 µM. The IC50 (M14) was 0.342 µM, the IC50 (LU-139) was 1.97 µM and the IC50 (ATN-1) was 0.505 µM. It also gave an IC50 (TGBC1TKB) of 1.88 µM, an IC50 (SCH) of 3.25 µM and an IC50 (NCI-H526) of 0.957 µM. The IC50 (GB-1) was 0.328 µM, the IC50 (RXF 393) was 0.0669 µM and the IC50 (PSN1) was greater than 5.12 µM. The IC50 (PANC-08-13) was 0.09 µM, the IC50 (LU-99A) was 0.74 µM and the IC50 (KGN) was 0.227 µM. The IC50 (EW-11) was 1.21 µM, the IC50 (NKM-1) was 0.425 µM and the IC50 (SK-N-FI) was greater than 5.12 µM. It also gave an IC50 (TE-1) greater than 5.12 µM, an IC50 (NCI-H1092) of 1.76 µM and an IC50 (IST-MES1) of 1.97 µM. It also gave an IC50 (COLO-320-HSR) of 0.518 µM, an IC50 (NCI-H630) of 0.544 µM and an IC50 (NCI-H1355) of 0.875 µM. For the same compound, the IC50 (SH-4) was 0.41 µM, the IC50 (MV4-11) was 0.545 µM and the IC50 (SK-MEL-2) was 0.631 µM. For the same compound, the IC50 (NCI-H69) was 1.18 µM, the IC50 (NCI-H1770) was 0.805 µM and the IC50 (EC-GI-10) was 2.24 µM. The IC50 (OVCAR-4) was 0.467 µM, the IC50 (CAS-1) was 2.23 µM and the IC50 (LS-123) was 1.25 µM. It also gave an IC50 (NCI-H446) of 1.14 µM, an IC50 (LB2241-RCC) of 0.733 µM and an IC50 (NCI-H23) greater than 5.12 µM. For the same compound, the IC50 (MN-60) was 0.894 µM, the IC50 (Lu-65) was 1.66 µM and the IC50 (P30-OHK) was 0.299 µM. It also gave an IC50 (EFO-21) of 0.913 µM, an IC50 (NCI-H1838) greater than 5.12 µM and an IC50 (EKVX) of 2.84 µM. The IC50 (LB2518-MEL) was 0.54 µM, the IC50 (KURAMOCHI) was 0.598 µM and the IC50 (HEL) was 0.548 µM. For the same compound, the IC50 (LAN-6) was 1.77 µM, the IC50 (SW982) was 0.121 µM and the IC50 (SK-MEL-1) was 1.33 µM. For the same compound, the IC50 (ES6) was 0.406 µM, the IC50 (KG-1) was 0.482 µM and the IC50 (no-11) was 1.35 µM. For the same compound, the IC50 (SF-268) was 0.537 µM, the IC50 (VM-CUB-1) was 3.48 µM and the IC50 (HuP-T4) was 3.26 µM. For the same compound, the IC50 (EFM-19) was 0.76 µM, the IC50 (KYSE-410) was 1.28 µM and the IC50 (NH-12) was 0.465 µM. For the same compound, the IC50 (A498) was 0.171 µM, the IC50 (L-363) was 0.445 µM and the IC50 (NCI-H720) was greater than 5.12 µM. It also gave an IC50 (KARPAS-299) of 0.38 µM, an IC50 (SJSA-1) of 0.251 µM and an IC50 (G-401) of 0.38 µM. The IC50 (LU-134-A) was 0.594 µM and the IC50 (HH) was greater than 5.12 µM.
